# Assays:
# Assay in all cases: KINOMEscan competition binding
# Conditions in all cases: compound 1.0 µM
# TLK2 (human) = TLK2 (human) (UniProt Q86UE8)
# TYRO3 (human) = TYRO3 (human) (UniProt Q06418)
# ADCK3 (human) = ADCK3 (human) (UniProt Q8NI60)
# CPK1 (P.falciparum) = tested on: CPK1 (P.falciparum)
# CSNK1A1L (human) = CSNK1A1L (human) (UniProt Q8N752)
# TLK1 (human) = TLK1 (human) (UniProt Q9UKI8)
# STK32B (human) = STK32B (human) (UniProt Q9NY57)
# MAPK12 (human) = MAPK12 (human) (UniProt P53778)
# MAP2K3 (human) = MAP2K3 (human) (UniProt P46734)
# MAP2K7 (human) = MAP2K7 (human) (UniProt O14733)
# [1] = tested on: FGFR3 (human), P22607 [G697C]
# TNK1 (human) = TNK1 (human) (UniProt Q13470)
# LTK (human) = LTK (human) (UniProt P29376)
# TAOK1 (human) = TAOK1 (human) (UniProt Q7L7X3)
# EPHB1 (human) = EPHB1 (human) (UniProt P54762)
# DAPK1 (human) = DAPK1 (human) (UniProt P53355)
# PAK1 (human) = PAK1 (human) (UniProt Q13153)
# NUAK1 (human) = NUAK1 (human) (UniProt O60285)
# IGF1R (human) = IGF1R (human) (UniProt P08069)
# [2] = biological target: TYK2 JH1 catalytic (human) (UniProt P29597)
# PIP4K2B (human) = PIP4K2B (human) (UniProt P78356)
# RPS6KA2 KD1 (human) = RPS6KA2 KD1 (human) (UniProt Q15349)
# TNK2 (human) = TNK2 (human) (UniProt Q07912)
# TAOK2 (human) = TAOK2 (human) (UniProt Q9UL54)
# ULK1 (human) = ULK1 (human) (UniProt O75385)
# ACVR1B (human) = ACVR1B (human) (UniProt P36896)
# MAP2K4 (human) = MAP2K4 (human) (UniProt P45985)
# STK35 (human) = STK35 (human) (UniProt Q8TDR2)
# [3] = tested on: BRAF (human), P15056 [V600E]
# STK25 (human) = STK25 (human) (UniProt O00506)
# [4] = tested on: MET (human), P08581 [Y1235D]
# CSNK1A1 (human) = CSNK1A1 (human) (UniProt P48729)
# TBK1 (human) = TBK1 (human) (UniProt Q9UHD2)
# MELK (human) = MELK (human) (UniProt Q14680)
# TEC (human) = TEC (human) (UniProt P42680)
# PAK3 (human) = PAK3 (human) (UniProt O75914)
# GRK4 (human) = GRK4 (human) (UniProt P32298)
# RPS6KA6 KD2 (human) = RPS6KA6 KD2 (human) (UniProt Q9UK32)
# BMX (human) = BMX (human) (UniProt P51813)
# CDK13 (human) = CDK13 (human) (UniProt Q14004)
# PRKCD (human) = PRKCD (human) (UniProt Q05655)
# RAF1 (human) = RAF1 (human) (UniProt P04049)
# [5] = tested on: KIT (human), P10721 [V559D/T670I]
# Sequence of RPS6KA2 KD1 (human) (Q15349 whole entry, looked up): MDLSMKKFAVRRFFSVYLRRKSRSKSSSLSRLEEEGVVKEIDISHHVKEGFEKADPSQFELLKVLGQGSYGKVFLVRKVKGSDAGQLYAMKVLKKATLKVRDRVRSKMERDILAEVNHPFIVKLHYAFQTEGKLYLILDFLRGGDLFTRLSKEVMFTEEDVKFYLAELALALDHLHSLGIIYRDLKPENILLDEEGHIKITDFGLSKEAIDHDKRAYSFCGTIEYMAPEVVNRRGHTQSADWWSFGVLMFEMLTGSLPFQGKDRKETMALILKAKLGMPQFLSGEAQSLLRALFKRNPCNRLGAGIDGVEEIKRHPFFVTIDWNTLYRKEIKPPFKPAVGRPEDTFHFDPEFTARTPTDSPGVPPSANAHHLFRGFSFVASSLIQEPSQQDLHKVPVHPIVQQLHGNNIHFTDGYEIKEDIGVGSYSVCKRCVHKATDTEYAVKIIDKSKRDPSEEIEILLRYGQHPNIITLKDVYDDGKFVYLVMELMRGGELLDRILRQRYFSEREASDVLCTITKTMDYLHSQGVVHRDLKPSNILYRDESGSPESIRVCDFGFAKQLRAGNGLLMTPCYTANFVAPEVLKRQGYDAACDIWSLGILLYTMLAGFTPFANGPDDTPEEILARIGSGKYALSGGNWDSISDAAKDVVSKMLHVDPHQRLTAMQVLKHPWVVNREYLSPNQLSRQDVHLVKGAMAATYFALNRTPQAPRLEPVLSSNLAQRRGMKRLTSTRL
# Sequence of ULK1 (human) (O75385 whole entry, looked up): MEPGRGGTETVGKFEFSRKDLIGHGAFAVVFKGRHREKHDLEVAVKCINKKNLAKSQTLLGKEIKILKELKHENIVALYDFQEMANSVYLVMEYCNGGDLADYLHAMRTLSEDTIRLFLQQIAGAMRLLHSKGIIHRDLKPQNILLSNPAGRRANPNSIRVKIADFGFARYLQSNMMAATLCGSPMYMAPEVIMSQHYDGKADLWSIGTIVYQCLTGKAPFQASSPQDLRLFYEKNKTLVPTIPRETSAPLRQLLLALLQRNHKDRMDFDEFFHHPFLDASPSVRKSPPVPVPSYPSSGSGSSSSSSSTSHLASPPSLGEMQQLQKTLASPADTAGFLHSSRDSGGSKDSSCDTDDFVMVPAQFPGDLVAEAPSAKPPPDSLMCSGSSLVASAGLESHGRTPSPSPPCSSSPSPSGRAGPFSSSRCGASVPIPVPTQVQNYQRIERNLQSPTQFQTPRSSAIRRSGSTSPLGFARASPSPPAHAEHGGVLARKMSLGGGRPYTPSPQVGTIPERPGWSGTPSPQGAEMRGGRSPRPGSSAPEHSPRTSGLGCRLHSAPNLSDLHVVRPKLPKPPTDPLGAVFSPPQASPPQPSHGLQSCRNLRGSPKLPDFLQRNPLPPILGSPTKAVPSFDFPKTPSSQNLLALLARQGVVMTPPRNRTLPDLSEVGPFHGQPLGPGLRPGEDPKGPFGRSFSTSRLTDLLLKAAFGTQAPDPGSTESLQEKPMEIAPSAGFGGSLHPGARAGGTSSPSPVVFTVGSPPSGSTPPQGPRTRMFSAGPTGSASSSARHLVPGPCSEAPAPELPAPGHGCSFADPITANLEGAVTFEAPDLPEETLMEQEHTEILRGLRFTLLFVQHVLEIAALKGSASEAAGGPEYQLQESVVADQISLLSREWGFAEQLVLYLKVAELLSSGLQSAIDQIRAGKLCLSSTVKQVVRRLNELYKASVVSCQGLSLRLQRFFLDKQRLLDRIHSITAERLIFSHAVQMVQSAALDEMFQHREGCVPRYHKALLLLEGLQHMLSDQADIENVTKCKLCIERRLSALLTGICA
# Sequence of TYK2 JH1 catalytic (human) (P29597 whole entry, looked up): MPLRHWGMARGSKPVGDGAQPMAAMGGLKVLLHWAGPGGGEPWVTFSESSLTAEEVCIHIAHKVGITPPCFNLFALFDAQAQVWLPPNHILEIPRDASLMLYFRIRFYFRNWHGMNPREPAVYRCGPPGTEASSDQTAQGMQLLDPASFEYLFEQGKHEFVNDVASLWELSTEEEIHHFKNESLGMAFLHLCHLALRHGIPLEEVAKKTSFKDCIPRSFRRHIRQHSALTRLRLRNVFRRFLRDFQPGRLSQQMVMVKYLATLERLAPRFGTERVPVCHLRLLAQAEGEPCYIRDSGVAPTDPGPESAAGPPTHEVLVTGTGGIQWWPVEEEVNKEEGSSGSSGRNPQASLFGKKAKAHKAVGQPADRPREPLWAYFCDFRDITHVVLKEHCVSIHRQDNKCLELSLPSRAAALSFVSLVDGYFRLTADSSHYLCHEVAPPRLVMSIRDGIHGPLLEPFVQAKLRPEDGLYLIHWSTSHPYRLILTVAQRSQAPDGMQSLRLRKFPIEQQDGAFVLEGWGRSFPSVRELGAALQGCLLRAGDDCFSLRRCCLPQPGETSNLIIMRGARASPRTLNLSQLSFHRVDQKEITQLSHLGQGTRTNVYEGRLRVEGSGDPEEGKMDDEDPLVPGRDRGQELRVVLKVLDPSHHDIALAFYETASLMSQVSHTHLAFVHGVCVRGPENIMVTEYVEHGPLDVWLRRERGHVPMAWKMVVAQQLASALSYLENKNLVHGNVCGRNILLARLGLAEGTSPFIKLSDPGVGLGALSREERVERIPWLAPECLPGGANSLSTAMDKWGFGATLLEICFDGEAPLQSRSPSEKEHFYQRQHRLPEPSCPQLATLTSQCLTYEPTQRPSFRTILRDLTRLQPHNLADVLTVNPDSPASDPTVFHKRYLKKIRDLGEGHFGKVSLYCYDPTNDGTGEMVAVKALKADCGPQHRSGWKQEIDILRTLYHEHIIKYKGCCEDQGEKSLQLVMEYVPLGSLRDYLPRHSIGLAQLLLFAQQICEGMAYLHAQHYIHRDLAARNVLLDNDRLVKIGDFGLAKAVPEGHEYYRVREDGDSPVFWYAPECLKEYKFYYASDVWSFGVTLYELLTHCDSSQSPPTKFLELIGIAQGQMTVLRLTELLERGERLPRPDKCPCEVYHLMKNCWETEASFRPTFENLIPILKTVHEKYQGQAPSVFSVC
# Sequence of BMX (human) (P51813 whole entry, looked up): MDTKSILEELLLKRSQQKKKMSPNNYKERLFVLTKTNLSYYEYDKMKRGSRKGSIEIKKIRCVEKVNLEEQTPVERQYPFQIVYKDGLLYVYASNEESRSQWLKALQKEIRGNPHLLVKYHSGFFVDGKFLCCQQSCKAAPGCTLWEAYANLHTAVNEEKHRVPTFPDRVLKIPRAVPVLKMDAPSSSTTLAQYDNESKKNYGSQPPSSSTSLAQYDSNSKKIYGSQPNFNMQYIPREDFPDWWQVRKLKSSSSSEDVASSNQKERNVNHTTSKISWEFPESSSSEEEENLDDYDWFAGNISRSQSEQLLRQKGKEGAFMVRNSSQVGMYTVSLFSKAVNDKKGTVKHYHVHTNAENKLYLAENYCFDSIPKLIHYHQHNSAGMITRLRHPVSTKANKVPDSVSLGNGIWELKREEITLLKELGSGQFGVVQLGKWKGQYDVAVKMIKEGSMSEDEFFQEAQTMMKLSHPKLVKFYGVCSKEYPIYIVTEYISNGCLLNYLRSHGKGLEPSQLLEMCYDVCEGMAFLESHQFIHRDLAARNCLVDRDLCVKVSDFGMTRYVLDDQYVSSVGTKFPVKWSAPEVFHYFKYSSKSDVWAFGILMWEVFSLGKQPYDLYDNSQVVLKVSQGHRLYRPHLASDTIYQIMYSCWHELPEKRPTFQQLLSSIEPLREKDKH
# Sequence of CSNK1A1 (human) (P48729 whole entry, looked up): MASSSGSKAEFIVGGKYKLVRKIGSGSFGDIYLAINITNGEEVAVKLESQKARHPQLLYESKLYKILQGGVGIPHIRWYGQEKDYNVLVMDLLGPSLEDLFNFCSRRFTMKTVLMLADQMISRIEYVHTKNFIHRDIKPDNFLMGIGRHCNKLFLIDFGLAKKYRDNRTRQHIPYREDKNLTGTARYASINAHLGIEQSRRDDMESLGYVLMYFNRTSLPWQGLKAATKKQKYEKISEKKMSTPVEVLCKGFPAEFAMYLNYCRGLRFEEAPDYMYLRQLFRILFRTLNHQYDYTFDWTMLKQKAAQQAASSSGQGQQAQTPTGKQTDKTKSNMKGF
# Sequence of TNK1 (human) (Q13470 whole entry, looked up): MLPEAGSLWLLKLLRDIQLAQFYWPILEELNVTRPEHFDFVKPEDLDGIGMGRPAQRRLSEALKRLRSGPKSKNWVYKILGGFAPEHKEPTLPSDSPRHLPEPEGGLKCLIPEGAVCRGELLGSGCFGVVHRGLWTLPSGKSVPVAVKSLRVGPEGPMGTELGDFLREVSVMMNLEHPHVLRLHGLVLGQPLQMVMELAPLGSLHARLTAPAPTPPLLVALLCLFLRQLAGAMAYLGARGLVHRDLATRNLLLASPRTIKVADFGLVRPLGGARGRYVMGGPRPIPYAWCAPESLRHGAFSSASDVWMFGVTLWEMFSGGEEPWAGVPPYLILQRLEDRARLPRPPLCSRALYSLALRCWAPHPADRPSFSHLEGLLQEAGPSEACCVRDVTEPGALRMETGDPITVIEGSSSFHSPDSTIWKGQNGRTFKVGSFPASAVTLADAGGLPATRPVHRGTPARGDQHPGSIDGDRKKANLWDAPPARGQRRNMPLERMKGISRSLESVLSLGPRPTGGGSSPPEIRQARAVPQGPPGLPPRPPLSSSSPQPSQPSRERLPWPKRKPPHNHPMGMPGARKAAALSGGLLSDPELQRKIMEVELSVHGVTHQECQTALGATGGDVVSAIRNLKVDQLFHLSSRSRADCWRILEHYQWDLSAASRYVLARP
# Sequence of MAP2K7 (human) (O14733 whole entry, looked up): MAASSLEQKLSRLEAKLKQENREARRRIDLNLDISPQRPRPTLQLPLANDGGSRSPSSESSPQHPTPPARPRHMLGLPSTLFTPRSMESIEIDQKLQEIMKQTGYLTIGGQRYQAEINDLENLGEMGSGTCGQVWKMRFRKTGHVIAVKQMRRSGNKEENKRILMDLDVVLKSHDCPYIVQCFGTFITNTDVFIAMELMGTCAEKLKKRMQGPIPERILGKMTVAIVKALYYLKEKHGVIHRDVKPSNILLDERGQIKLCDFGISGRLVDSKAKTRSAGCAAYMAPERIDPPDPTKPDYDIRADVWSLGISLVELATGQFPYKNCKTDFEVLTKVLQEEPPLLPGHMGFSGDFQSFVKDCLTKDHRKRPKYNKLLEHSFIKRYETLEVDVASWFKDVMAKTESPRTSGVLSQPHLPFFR
smiles,measurement,setting,value
CN(C)C/C=C/C(=O)Nc1cccc(C(=O)Nc2ccc(Nc3nccc(-c4c(-c5ccccc5)nn5ccccc45)n3)cc2)c1,"kinase still bound, per cent of control",TLK2 (human),100%
same,"kinase still bound, per cent of control",TYRO3 (human),81%
same,"kinase still bound, per cent of control",ADCK3 (human),0%
same,"kinase still bound, per cent of control",CPK1 (P.falciparum),0.6%
same,"kinase still bound, per cent of control",CSNK1A1L (human),5.5%
same,"kinase still bound, per cent of control",TLK1 (human),67%
same,"kinase still bound, per cent of control",STK32B (human),30%
same,"kinase still bound, per cent of control",MAPK12 (human),94%
same,"kinase still bound, per cent of control",MAP2K3 (human),58%
same,"kinase still bound, per cent of control",MAP2K7 (human),89%
same,"kinase still bound, per cent of control",[1],93%
same,"kinase still bound, per cent of control",TNK1 (human),100%
same,"kinase still bound, per cent of control",LTK (human),83%
same,"kinase still bound, per cent of control",TAOK1 (human),40%
same,"kinase still bound, per cent of control",EPHB1 (human),84%
same,"kinase still bound, per cent of control",DAPK1 (human),94%
same,"kinase still bound, per cent of control",PAK1 (human),98%
same,"kinase still bound, per cent of control",NUAK1 (human),83%
same,"kinase still bound, per cent of control",IGF1R (human),100%
same,"kinase still bound, per cent of control",[2],76%
same,"kinase still bound, per cent of control",PIP4K2B (human),100%
same,"kinase still bound, per cent of control",RPS6KA2 KD1 (human),86%
same,"kinase still bound, per cent of control",TNK2 (human),100%
same,"kinase still bound, per cent of control",TAOK2 (human),31%
same,"kinase still bound, per cent of control",ULK1 (human),87%
same,"kinase still bound, per cent of control",ACVR1B (human),8.4%
same,"kinase still bound, per cent of control",MAP2K4 (human),100%
same,"kinase still bound, per cent of control",STK35 (human),94%
same,"kinase still bound, per cent of control",[3],21%
same,"kinase still bound, per cent of control",STK25 (human),100%
same,"kinase still bound, per cent of control",[4],59%
same,"kinase still bound, per cent of control",CSNK1A1 (human),2%
same,"kinase still bound, per cent of control",TBK1 (human),100%
same,"kinase still bound, per cent of control",MELK (human),100%
same,"kinase still bound, per cent of control",TEC (human),100%
same,"kinase still bound, per cent of control",PAK3 (human),52%
same,"kinase still bound, per cent of control",GRK4 (human),93%
same,"kinase still bound, per cent of control",RPS6KA6 KD2 (human),13%
same,"kinase still bound, per cent of control",BMX (human),76%
same,"kinase still bound, per cent of control",CDK13 (human),100%
same,"kinase still bound, per cent of control",PRKCD (human),100%
same,"kinase still bound, per cent of control",RAF1 (human),83%
same,"kinase still bound, per cent of control",[5],4%
